Each structure is given as a SMILES string. Numbers after ± are expanded uncertainties.

For 3 molecules, mass density results are on record in the NIST ThermoML archive (doi:10.1021/je3003783).

For this series the following is noted: 101.33 kPa, Liquid, Vibrating tube method.

For `CCCCn1cc[n+](C)c1.[Cl-]` [1-butyl-3-methylimidazolium chloride], the mass density (298.15 K) was found to be 1081.59 ± 0.38 kg/m3, the mass density (323.15 K) came to 1067.28 ± 0.37 kg/m3, the mass density (348.15 K) is reported as 1053.35 ± 0.35 kg/m3 and the mass density (363.15 K) was determined as 1045.06 ± 0.34 kg/m3.

With `CCCCCCn1cc[n+](C)c1.[Cl-]` [1-hexyl-3-methylimidazolium chloride], the mass density by setting is: (298.15 K) 1040.92 ± 0.34 kg/m3; (323.15 K) 1026.73 ± 0.32 kg/m3; (348.15 K) 1012.81 ± 0.31 kg/m3; (363.15 K) 1004.49 ± 0.3 kg/m3.

Consider `CCCCCCCC[n+]1ccn(C)c1.[Cl-]` [1-methyl-3-octylimidazolium chloride], for which the mass density turned out to be 1012.35 ± 0.31 kg/m3 (298.15 K), 998.05 ± 0.3 kg/m3 (323.15 K), 983.99 ± 0.3 kg/m3 (348.15 K) and 975.67 ± 0.3 kg/m3 (363.15 K).

One may read the mass density as mass per unit of volume.
